Measured values published in PMC4091617 (Chemical communications (Cambridge, England), 2011).

Biological target: T1, DhpI (Streptomyces luridus, UniProt D7PC21)
T1 sequence (D7PC21 1-218): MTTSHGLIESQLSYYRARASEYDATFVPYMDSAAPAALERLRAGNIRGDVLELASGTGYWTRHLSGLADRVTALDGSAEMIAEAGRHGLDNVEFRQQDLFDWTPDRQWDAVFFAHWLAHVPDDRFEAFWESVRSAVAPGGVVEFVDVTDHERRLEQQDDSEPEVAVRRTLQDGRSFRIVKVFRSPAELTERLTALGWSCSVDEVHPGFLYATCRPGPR
Assay: in vitro O-methylation
Assay type: biochemical
Conditions: SAM as methyl donor; Pfs present

CC(=O)N(O)CCCP(=O)(O)O [FR-900098]
in vitro O-methylation: These four phosphonates were used as the basis; each was methylated by DhpI
